Where two headings read alike, the source gives them in different places.
What was measured:
cathepsin D = cathepsin D (Homo sapiens, UniProt P07339); experiment: Inhibition of cathepsin D catalytic activity (Ki); assay type: biochemical; details: pH 4.0, 37° C., read-out: CDK
Protocol: A substrate peptide NH3-ELDLAVEFWHDR-CO2 (SEQ ID NO.:1) (used for inhibition assay of memapsin 2, memapsin 1, and cathepsin D) was dissolved at 2 mg/ml in DMSO and diluted 1:100 in 0.1 M sodium acetate, pH 4.0 just prior to assay. Inhibitor dissolved in DMSO was diluted into 0.1 M sodium acetate, pH 4.0 (1:100 dilution). A […] aliquot of the inhibitor solution in pH 4 buffer was combined with […] of 0.1 M sodium acetate containing 100-200 nM of memapsin 1, memapsin 2, or cathepsin D. Following a pre-incubation at 37° C., the proteolytic assay was initated by addition of […] of the substrate diluted into pH 4 buffer, and incubation continued at 37° C. Aliquots were removed at time intervals, and combined with an equal volume of MALDI-TOF matrix (α-hydroxycinnamic acid in acetone, 20 mg/ml) and immediately spotted in duplicate onto a stainless-steel MALDI sample plate. MALDI-TOF mass spectrometry was performed on a PE Biosystems Voyager DE instrument at the Molecular Biology Resource Center on campus. The instrument was operated at 25,000 accelerating volts in positive mode with a 150 ns delay. Ions with a mass-to-charge ratio (m/z) were detected in the range of 650-2000 atomic mass units. Data were analyzed by the Voyager Data Explorer module to obtain ion intensity data for mass species of substrates and corresponding products in a given mixture. Relative product formation was calculated as the ratio of signal intensity of the product to the sum of signal intensities of both product and the corresponding substrate. Relative product formed per unit time was obtained from non-linear regression analysis of the data representing the initial 15% formation of product using the model: 1−e^−kT, where k was the relative hydrolytic rate constant and T was time in seconds. Alternatively, relative hydrolytic rates were determined using a fluorogenic cleavage assay (Ermolieff, J. et al., Biochemistry, 39: 12450-12456 (2000)). Initial rates from either method were expressed relative to uninhibited controls and the inhibition constant Ki was determined by a non-linear fit to a tight-binding model of competitive inhibition (Bieth, J., Bayer-Symposium V: Proteinase Inhibitors, pp 463-469, Spinger-Varlag, Berlin (1994)). Results are shown in Table 1 above (M2K, CDK, and M1K columns represent, respectively, the K1 values obtained for memapsin 2, cathepsin D and memapsin 1).

memapsin 2 = memapsin 2 (Homo sapiens, UniProt P56817); experiment: Inhibition of memapsin 2 catalytic activity (Ki); assay type: biochemical; details: memapsin 2, pH 4, 37° C.; read-out: M2K
memapsin 2, sequence (P56817 46-501): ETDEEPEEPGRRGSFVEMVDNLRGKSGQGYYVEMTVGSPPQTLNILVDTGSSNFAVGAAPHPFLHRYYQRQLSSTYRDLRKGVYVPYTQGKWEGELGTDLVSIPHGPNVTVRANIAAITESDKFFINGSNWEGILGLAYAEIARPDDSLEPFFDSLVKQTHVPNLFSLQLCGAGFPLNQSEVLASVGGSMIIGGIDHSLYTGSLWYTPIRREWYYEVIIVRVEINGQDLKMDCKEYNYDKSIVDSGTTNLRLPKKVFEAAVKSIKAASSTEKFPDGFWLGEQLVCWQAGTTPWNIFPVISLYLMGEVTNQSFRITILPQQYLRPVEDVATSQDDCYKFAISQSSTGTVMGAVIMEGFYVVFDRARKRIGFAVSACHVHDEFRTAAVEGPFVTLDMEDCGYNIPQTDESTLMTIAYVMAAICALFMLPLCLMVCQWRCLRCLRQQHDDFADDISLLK
Outline: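 Run at 37 °C and pH 4: compound and enzyme pre-incubated 20 min before FS-2 fluorogenic substrate started hydrolysis,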

[1] = system: Aβ production in Chinese hamster ovary cells that over-express human APP695 with the London and Swedish mutations; experiment: Cellular Aβ IC50 determination (Aβ40 sandwich ELISA); details: 24 h
[2] = Cricetulus griseus, CHO, read-out: Cell, Aβ40, CHO cells over-expressing human APP695 (London and Swedish mutations), 24 h

cathepsin D, sequence (P07339 65-412, species assumed): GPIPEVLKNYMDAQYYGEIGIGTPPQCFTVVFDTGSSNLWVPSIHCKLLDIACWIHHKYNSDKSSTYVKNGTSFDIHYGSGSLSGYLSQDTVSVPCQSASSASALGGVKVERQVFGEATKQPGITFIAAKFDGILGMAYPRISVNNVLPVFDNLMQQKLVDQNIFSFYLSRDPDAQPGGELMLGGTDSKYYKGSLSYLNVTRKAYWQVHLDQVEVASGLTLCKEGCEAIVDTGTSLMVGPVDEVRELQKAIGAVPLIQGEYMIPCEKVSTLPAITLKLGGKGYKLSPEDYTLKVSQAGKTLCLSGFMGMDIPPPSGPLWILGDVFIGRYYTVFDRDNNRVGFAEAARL

Compound | Ki (cathepsin D) [nM] | Ki (memapsin 2) [nM] | IC50 [1, 2] [nM] | IC50 ([1]; read-out: Cell, Aβ40, CHO cells over-expressing human APP695 (London and Swedish mutations)) [nM]
4- or 6-fluoro-N3-(3-hydroxy-4-(3-methoxybenzylamino)-1-phenylbutan-2-yl)-N1-(1-phenylethyl)isophthalamide | < 300 | > 501 | – | –
COc1cccc(CNCC(O)C(Cc2ccccc2)NC(=O)c2cccc(C(=O)N(C)Cc3nc(C)cs3)c2F)c1 (centres unmarked) [2-fluoro-N1-(3-hydroxy-4-(3-methoxybenzylamino)-1-phenylbutan-2-yl)-N3-methyl-N3-((4-methylthiazol-2-yl)methyl)isophthalamide] | < 300 | > 501 | 1000 to 5000 | –
COc1cccc(CNCC(O)C(Cc2ccccc2)NC(=O)c2cccc(C(=O)N(Cc3nc(C)cs3)N(C)C)c2)c1 (centres unmarked) [3-(2,2-dimethyl-1-((4-methylthiazol-2-yl)methyl)hydrazinecarbonyl)-N-(3-hydroxy-4-(3-methoxybenzylamino)-1-phenylbutan-2-yl)benzamide] | > 501 | > 501 | > 5000 | –
COc1cccc(CNCC(O)C(Cc2ccccc2)NC(=O)c2cc(C(=O)NC(C)c3ccccc3)c(F)cc2F)c1 (centres unmarked) [4,6-difluoro-N1-(3-hydroxy-4-(3-methoxybenzylamino)-1-phenylbutan-2-yl)-N3-(1-phenylethyl)isophthalamide] | < 300 | > 501 | 1000 to 5000 | –
COc1cccc(CNCC(O)C(Cc2ccccc2)NC(=O)c2cc(C(=O)NC(C)C3CCCCC3)cc(N(C)S(C)(=O)=O)c2)c1 (centres unmarked) [N1-(1-cyclohexylethyl)-N3-(3-hydroxy-4-(3-methoxybenzylamino)-1-phenylbutan-2-yl)-5-(N-methylmethylsulfonamido)isophthalamide] | < 300 | < 300 | < 1000 | –
N3-(3-hydroxy-4-(3-methoxybenzylamino)-1-phenylbutan-2-yl)-4- or 6-methyl-N1-(1-phenylethyl)isophthalamide | < 300 | – | – | 1000 to 5000

Continued, values first:

Ki (cathepsin D) [nM] | Ki (memapsin 2) [nM] | IC50 [1, 2] [nM] | IC50 ([1]; read-out: Cell, Aβ40, CHO cells over-expressing human APP695 (London and Swedish mutations)) [nM] | Compound
< 300 | < 300 | < 1000 | – | CC(NCC(O)C(Cc1ccccc1)NC(=O)c1cc(C(=O)NC(C)c2ccccc2)cc(N(C)S(C)(=O)=O)c1)c1cccnc1 (centres unmarked) [N1-(3-hydroxy-1-phenyl-4-(1-(pyridin-3-yl)ethylamino)butan-2-yl)-5-(N-methylmethylsulfonamido)-N3-(1-phenylethyl)isophthalamide]
> 501 | > 501 | > 5000 | – | CC(NC(=O)c1cc(C(=O)NC(Cc2ccccc2)C(O)CNCCN2CCCCC2)cc(N(C)S(C)(=O)=O)c1)c1ccccc1 (centres unmarked) [N1-(3-hydroxy-1-phenyl-4-(2-(piperidin-1-yl)ethylamino)butan-2-yl)-5-(N-methylmethylsulfonamido)-N3-(1-phenylethyl)isophthalamide]
< 300 | – | – | – | CNc1cccc(CNCC(O)C(Cc2ccccc2)NC(=O)c2cc(C(=O)NC(C)c3ccccc3)cc(N(C)S(C)(=O)=O)c2)c1 (centres unmarked) [N1-(3-hydroxy-4-(3-(methylamino)benzylamino)-1-phenylbutan-2-yl)-5-(N-methylmethylsulfonamido)-N3-(1-phenylethyl)isophthalamide]
< 300 | < 300 | – | – | COc1cccc(CCNCC(O)C(Cc2ccccc2)NC(=O)c2cc(C(=O)NC(C)c3ccccc3)cc(N(C)S(C)(=O)=O)c2)c1 (centres unmarked) [N1-(3-hydroxy-4-(3-methoxyphenethylamino)-1-phenylbutan-2-yl)-5-(N-methylmethylsulfonamido)-N3-(1-phenylethyl)isophthalamide]
< 300 | < 300 | – | – | Cc1ccc(CNCC(O)C(Cc2ccccc2)NC(=O)c2cc(C(=O)NC(C)c3ccccc3)cc(N(C)S(C)(=O)=O)c2)o1 (centres unmarked) [N1-(3-hydroxy-4-((5-methylfuran-2-yl)methylamino)-1-phenylbutan-2-yl)-5-(N-methylmethylsulfonamido)-N3-(1-phenylethyl)isophthalamide]
< 300 | < 300 | – | – | CC(NCC(O)C(Cc1ccccc1)NC(=O)c1cc(C(=O)NC(C)c2ccccc2)cc(N(C)S(C)(=O)=O)c1)c1cccc(F)c1 (centres unmarked) [N1-(4-(1-(3-fluorophenyl)ethylamino)-3-hydroxy-1-phenylbutan-2-yl)-5-(N-methylmethylsulfonamido)-N3-(1-phenylethyl)isophthalamide]

Reference: US7504420B2, “Compounds which inhibit beta-secretase activity and methods of use” (CoMentis, Inc., priority 2005, dated 2009)
